Measured values as given in patent US12357695B2, “Peptides and nanoparticles for intracellular delivery of molecules” (AADIGEN, LLC, priority 2019, dated 2025).
Entries after “also recorded” stand apart in the source; their conditions may differ. Square brackets hold non-standard residues; d marks the D form. Primed or numbered codes have the meaning given here. Ends that are not written are not given here. PEG4′ = four-unit PEG spacer; PEG2′ = two-unit PEG spacer; Ahx = NCCCCCC(=O)O; Ava = NCCCCC(=O)O; βAla = NCCC(=O)O

These substances were tested on mice or rat models (assay: Summary of cargo delivery to targeted organ (Table 1)). Conditions: cargoes and route (IV, IM, SQ, NB) per peptide as listed in Table 1.
Type: in vivo
Text: Table 1 lists a summary of cell-penetrating peptides that have been proven successful in delivering various cargo molecules to on or more targeted organ (e.g., by intravenous (IV), intramuscular (IM), or subcutaneous (SQ) administration, or intratraccheal instillation or nebulization (NB)) in mice or rat models.
For “ASSLNIA-Ava-KWWERWWREWPRKRR (ASSLNIAKWWERWWREWPRKRR; Ava linker; VARIANT 7, 8 Linked by a 5-amino pentanoic acid) [VEPEP-3C]”, the “Targeted Organ” value was “Muscle”. With “Ac-(PEG)2-βA-KWRSALWRWRLWRVRSWSR-NH2 ({Ac-PEG2′}-[βAla]KWRSALWRWRLWRVRSWSR-NH2) [ADGN-100-PEG2]” the “Targeted Organ” value was “Lung:Liver/; also recorded: Spleen”. In the case of “Ac-(PEG)2-βALWRALWRLWRSLWRLLWKA-NH2 ({Ac-PEG2′}-[βAla]LWRALWRLWRSLWRLLWKA-NH2) [ADGN-106-PEG2]”, the “Targeted Organ” value is reported as “Lung/Kidney/; also recorded: Spleen”. In the case of Ac-CKRAVRWWLRWASRWFSRWAWWR [VEPEP-9B], the “Targeted Organ” value is reported as “Heart”. “Ac-GYVS-Ava(CH2)2-ALWRALWRLWRSLWRLLWKA-NH2 [ADGN-106 hydro-4]” was tested, and the “Targeted Organ” value was “Brain/Kidney”. “Ac-SYTSSTM-ava-KWWERWWREWPRKRR (SYTSSTMKWWERWWREWPRKRR; N-acetyl, Ava linker; VARIANT 1 N-terminal acetylation; VARIANT 7, 8 Linked by a 5-amino pentanoic acid) [VEPEP-3E]” was tested, and the “Targeted Organ” value was “Brain”. For “Ac-YIGSR-(PEG)2-βA-KWRSALWRWRLWRVRSWSR-NH2 (Ac-YIGSR[PEG2′][βAla]KWRSALWRWRLWRVRSWSR-NH2) [ADGN-100-HYPEG2]”, the “Targeted Organ” value was “Lung”. For “Ac-YIGSR-(PEG)4-βA-KWRSALWRWRLWRVRSWSR-NH2 (Ac-YIGSR[PEG4′][βAla]KWRSALWRWRLWRVRSWSR-NH2) [ADGN-100-HYPEG4]”, the “Targeted Organ” value was “Lung”. “Ac-YIGSR-A-KWRSALWRWRLWRVRSWSR-NH2 (Ac-YIGSR[βAla]KWRSALWRWRLWRVRSWSR-NH2; SMILES CC[C@H](C)[C@H](NC(=O)[C@H](Cc1ccc(O)cc1)NC(C)=O)C(=O)NCC(=O)N[C@@H](CO)C(=O)N[C@@H](CCCNC(=N)N)C(=O)NCCC(=O)N[C@@H](CCCCN)C(=O)N[C@@H](Cc1c[nH]c2ccccc12)C(=O)N[C@@H](CCCNC(=N)N)C(=O)N[C@@H](CO)C(=O)N[C@@H](C)C(=O)N[C@@H](CC(C)C)C(=O)N[C@@H](Cc1c[nH]c2ccccc12)C(=O)N[C@@H](CCCNC(=N)N)C(=O)N[C@@H](Cc1c[nH]c2ccccc12)C(=O)N[C@@H](CCCNC(=N)N)C(=O)N[C@@H](CC(C)C)C(=O)N[C@@H](Cc1c[nH]c2ccccc12)C(=O)N[C@@H](CCCNC(=N)N)C(=O)N[C@H](C(=O)N[C@@H](CCCNC(=N)N)C(=O)N[C@@H](CO)C(=O)N[C@@H](Cc1c[nH]c2ccccc12)C(=O)N[C@@H](CO)C(=O)N[C@@H](CCCNC(=N)N)C(N)=O)C(C)C) [ADGN-100-Hydro]” was tested, and the “Targeted Organ” value was “Lung/Kidney”. For “Ac-YIGSR-Ahx-ALWRALWRLWRSLWRLLWKA-NH2 (Ac-YIGSR[Ahx]ALWRALWRLWRSLWRLLWKA-NH2; SMILES CC[C@H](C)[C@H](NC(=O)[C@H](Cc1ccc(O)cc1)NC(C)=O)C(=O)NCC(=O)N[C@@H](CO)C(=O)N[C@@H](CCCNC(=N)N)C(=O)NCCCCCC(=O)N[C@@H](C)C(=O)N[C@@H](CC(C)C)C(=O)N[C@@H](Cc1c[nH]c2ccccc12)C(=O)N[C@@H](CCCNC(=N)N)C(=O)N[C@@H](C)C(=O)N[C@@H](CC(C)C)C(=O)N[C@@H](Cc1c[nH]c2ccccc12)C(=O)N[C@@H](CCCNC(=N)N)C(=O)N[C@@H](CC(C)C)C(=O)N[C@@H](Cc1c[nH]c2ccccc12)C(=O)N[C@@H](CCCNC(=N)N)C(=O)N[C@@H](CO)C(=O)N[C@@H](CC(C)C)C(=O)N[C@@H](Cc1c[nH]c2ccccc12)C(=O)N[C@@H](CCCNC(=N)N)C(=O)N[C@@H](CC(C)C)C(=O)N[C@@H](CC(C)C)C(=O)N[C@@H](Cc1c[nH]c2ccccc12)C(=O)N[C@@H](CCCCN)C(=O)N[C@@H](C)C(N)=O) [ADGN-106 hydro-7]”, the “Targeted Organ” value was “Lung/Tumor”. “KSYDTY-ava-ALRWLRWASRWFSRWAWR (KSYDTY[Ava]ALRWLRWASRWFSRWAWR) [VEPEP-9A]” was tested, and the “Targeted Organ” value was “Brain/Lymphnode”. For “KSYDTYAAETRRWASRWFSRWAWWR (not fully specified (N-terminus, C-terminus)) [VEPEP-9D]”, the “Targeted Organ” value was “Brain/Lymphnode”. “LSSRLDA-Ava-KWWERWWREWPRKRR (LSSRLDAKWWERWWREWPRKRR; Ava linker; VARIANT 7, 8 Linked by a 5-amino pentanoic acid) [VEPEP-3D]” was tested, and the “Targeted Organ” value was “Heart/Muscle”.
